Laboratory results: ChEMBL document CHEMBL5375966, “Exploiting the "Hot-Spots" of Hsp70-Bim Protein-Protein Interaction to Optimize the 1-Oxo-1H-phenalene-2,3-dicarbonitrile Analogues as Specific Hsp70-Bim Inhibitors” (J Med Chem, 2023)
Values belong to the molecule of their own block, whether it stands above or below them. Calls of active or inactive are those of the source. The calls are words filed in the database; no cut-off is given here.

Columns and labels:
BaF3 = assay: Induction of apoptosis in mouse BaF3 cells assessed as apoptotic rate at 15 uM incubated for 24 hrs by annexin V/PI staining based flow cytometry analysis relative to control; assay type: toxicity, cell-based; conditions: baf3, 24 h
[1] = Inhibition of Bim (unknown origin)- N-terminal 6His-tagged human recombinant HSP70 NBD (1 to 383 residues) expressed in Escherichia coli BL21 (DE3) protein protein interaction assessed as suppression of BimBH3-stimulated HSP70 ATPase activity
[2] = Inhibition of Fam-labeled BimBH3 peptide binding to N-terminal 6His-tagged human recombinant HSP70 NBD (1 to 383 residues) expressed in Escherichia coli BL21 (DE3) assessed as inhibition constant incubated for 24 hrs by fluorescence polarization assay
[3] = Induction of apoptosis in human Imatinib-resistant K562-R3 cells incubated for 24 hrs by annexin V/PI staining based flow cytometry analysis; assay type: functional; conditions: Imatinib-resistant K562-R3 cell
BV-173 = assay: Induction of apoptosis in human BV-173 cells incubated for 24 hrs by annexin V/PI staining based flow cytometry analysis; assay type: functional, cell-based; conditions: BV-173, 24 h
HEK293 = assay: Induction of apoptosis in human HEK293 cells assessed as apoptotic rate at 15 uM incubated for 24 hrs by annexin V/PI staining based flow cytometry analysis relative to control; assay type: toxicity, cell-based; conditions: hek293, 24 h
K562 [4] = assay: Induction of apoptosis in human K562 cells incubated for 24 hrs by annexin V/PI staining based flow cytometry analysis; assay type: functional, cell-based; conditions: K562, 24 h
K562 [5] = assay: Inhibition of HSP70-Bim protein protein interaction in human K562 cells incubated for 12 hrs by Co-IP analysis; assay type: cell-based; conditions: dose 0-5 µM
K562 [6] = assay: Inhibition of HSP70-Bag3 protein protein interaction in human K562 cells at 10 uM incubated for 12 hrs by Co-IP analysis; assay type: cell-based
[7] = Inhibition of Fam-labeled BimBH3 peptide binding to N-terminal 6His-tagged human recombinant HSP70 NBD (1 to 383 residues) D225T mutant expressed in Escherichia coli BL21 (DE3) assessed as inhibition constant incubated for 24 hrs by fluorescence polarization assay
K562 [8] = assay: Induction of apoptosis in HSP70 shRNA transfected human K562 cells assessed as increase in Annexin V+ cells at 2 uM incubated for 24 hrs by Annexin V/PI staining based flow cytometry analysis; assay type: functional, cell-based
K562 [9] = assay: Inhibition of HSP70-Bim protein protein interaction in human K562 cells assessed as decrease in AKT phosphorylation at 2 uM incubated for 12 hrs by Western blot analysis; assay type: cell-based
[10] = tested on: Imatinib-resistant K562-R1; assay: Antitumor activity against Bcr-Abl independent human Imatinib-resistant K562-R1 cells xenografted in BALB/c nu/nu mouse assessed as reduction in tumor growth at 2 mg/kg, ip administered every day for 14 days and measured on day 15; assay type: functional, organism-based; conditions: time 15.0 day
[11] = Inhibition of Fam-labeled BimBH3 peptide binding to wild type N-terminal 6His-tagged human recombinant HSP70 NBD (1 to 383 residues) expressed in Escherichia coli BL21 (DE3) assessed as dissociation constant incubated for 24 hrs by fluorescence polarization assay
[12] = Inhibition of Fam-labeled BimBH3 peptide binding to N-terminal 6His-tagged human recombinant HSP70 NBD (1 to 383 residues) Y149A mutant expressed in Escherichia coli BL21 (DE3) assessed as dissociation constant incubated for 24 hrs by fluorescence polarization assay
[13] = Toxicity in BALB/c nu/nu mouse xenografted with Bcr-Abl independent human Imatinib-resistant K562-R1 cells assessed as reduction in body weight at 2 mg/kg, ip administered every day for 14 days and measured every 3 days; assay type: organism-based; conditions: in vivo, 336 h, time 14 day
K562 [14] = assay: Induction of apoptosis in Bim shRNA transfected human K562 cells assessed as increase in Annexin V+ cells at 2 uM incubated for 24 hrs by Annexin V/PI staining based flow cytometry analysis; assay type: functional, cell-based
[15] = Inhibition of Fam-labeled BimBH3 peptide binding to N-terminal 6His-tagged human recombinant HSP70 NBD (1 to 383 residues) Y149A mutant expressed in Escherichia coli BL21 (DE3) assessed as inhibition constant incubated for 24 hrs by fluorescence polarization assay
[16] = Antitumor activity against Bcr-Abl independent human Imatinib-resistant K562-R1 cells xenografted in BALB/c nu/nu mouse assessed as reduction in tumor weight by measuring T/C ratio at 2 mg/kg, ip administered every day for 14 days and measured on day 15; assay type: functional; conditions: time 14 day
[17] = AUCt in Sprague-Dawley rat at 3 mg/kg, iv measured upto 24 hrs by LC-MS/MS analysis; assay type: ADME, organism-based; design: time < 24 hrs, dose 3 mg/kg, route iv; conditions: in vivo
K562 [18] = assay: Inhibition of HSP70-Bim protein protein interaction in human K562 cells assessed as decrease in EIF4e phosphorylation at 2 uM incubated for 12 hrs by Western blot analysis; assay type: cell-based
[19] = Cmax in Sprague-Dawley rat at 3 mg/kg, iv measured upto 24 hrs by LC-MS/MS analysis; assay type: ADME, organism-based; design: dose 3 mg/kg, time < 24 hrs, route iv; conditions: in vivo
Mus musculus [20] = assay: (§1) In vivo disruption of HSP70-Bim protein protein interaction in BALB/c nu/nu mouse xenografted with Bcr-Abl independent human Imatinib-resistant K562-R1 cells at 2 mg/kg, ip administered every day for 14 days and measured on day 15 by Co-IP analysis; assay type: functional, organism-based; conditions: time 15.0 day
[21] = Clearance in Sprague-Dawley rat at 3 mg/kg, iv measured upto 24 hrs by LC-MS/MS analysis; assay type: ADME, organism-based; conditions: in vivo
K562 [22] = assay: Induction of apoptosis in Bim shRNA transfected human K562 cells assessed as increase in cleaved PARP level at 2 uM incubated for 24 hrs by Western blot analysis; assay type: functional, cell-based
[23] = Half life in Sprague-Dawley rat at 3 mg/kg, iv measured upto 24 hrs by LC-MS/MS analysis; assay type: ADME, organism-based; conditions: in vivo
[24] = Tmax in Sprague-Dawley rat at 3 mg/kg, iv measured upto 24 hrs by LC-MS/MS analysis; assay type: ADME, organism-based; conditions: in vivo
Mus musculus [25] = assay: as §1, with “cells assessed as destabilization of AKT protein level” for “cells”, “immunoblot” for “Co-IP”; assay type: functional, organism-based; conditions: time 15.0 day
[26] = Inhibition of Fam-labeled BimBH3 peptide binding to N-terminal 6His-tagged human recombinant HSP70 NBD (1 to 383 residues) D225T mutant expressed in Escherichia coli BL21 (DE3) assessed as dissociation constant incubated for 24 hrs by fluorescence polarization assay
K562 [27] = assay: Inhibition of HSP70-Bim protein protein interaction in human K562 cells assessed as decrease in AKT protein expression at 2 uM incubated for 12 hrs by Western blot analysis; assay type: cell-based
K562 [28] = assay: Induction of apoptosis in HSP70 shRNA transfected human K562 cells assessed as increase in cleaved PARP level at 2 uM incubated for 24 hrs by Western blot analysis; assay type: functional, cell-based
Mus musculus [29] = assay: as §1, with “cells assessed as destabilization of EIF4e protein level” for “cells”, “immunoblot” for “Co-IP”; assay type: functional, organism-based; conditions: time 15.0 day
K562 [30] = assay: Inhibition of HSP70-Bim protein protein interaction in human K562 cells assessed as decrease in EIF4e protein expression at 2 uM incubated for 12 hrs by Western blot analysis; assay type: cell-based

inhibition [1]: Active
EC50 [3]: 1.7 µM
EC50 (BV-173): 6.1 µM
EC50 (K562 [4]): 9.4 µM
Structure (SMILES): COC(=O)CCNC1=C(C#N)C(=O)c2cccc3c(SC4CCCCC4)ccc1c23
Activity (BaF3): < 10%
Ki [2]: 2.6 µM
Activity (HEK293): < 10%

inhibition [1]: Active
Structure (SMILES): N#CC1=C(NCCC(=O)NC2CCCCC2)c2ccc(SC3CCCCC3)c3cccc(c23)C1=O
Ki [2]: 11 µM

inhibition [1]: Active
Structure (SMILES): COC(=O)CCNC1=C(C#N)C(=O)c2cccc3c(SC4CCCC4)ccc1c23
Ki [2]: 2.2 µM

inhibition [1]: Active
Structure (SMILES): COC(=O)CCNC1=C(C#N)C(=O)c2cccc3c(Sc4ccc(C(C)C)cc4)ccc1c23
Ki [2]: 16.2 µM

inhibition [1]: Active
Structure (SMILES): CCCCSc1ccc2c3c(cccc13)C(=O)C(C#N)=C2NCCC(=O)OC
Ki [2]: 14.5 µM

inhibition [1]: Active
Structure (SMILES): COC(=O)CCNC1=C(C#N)C(=O)c2cccc3c(SCCc4ccccc4)ccc1c23
Ki [2]: > 20 µM

Continued, molecule first:

Structure (SMILES): CCOC(=O)CN1CCN(CCNC2=C(C#N)C(=O)c3cccc4c(SC5CCCCC5)ccc2c34)CC1
inhibition [1]: Active
Ki [2]: 4.1 µM

Structure (SMILES): COC(=O)CCNC1=C(C#N)C(=O)c2cccc3c(Sc4cccc(N)c4)ccc1c23
inhibition [1]: Active
Ki [2]: 18.9 µM

Structure (SMILES): COC(=O)CCNC1=C(C#N)C(=O)c2cccc3c(SCCO)ccc1c23
inhibition [1]: Active
Ki [2]: > 20 µM

Structure (SMILES): N#CC1=C(NCCC(=O)O)c2ccc(SC3CCCCC3)c3cccc(c23)C1=O
inhibition [1]: Active
Ki [2]: > 20 µM

Structure (SMILES): COC(=O)CCNC1=C(C#N)C(=O)c2cccc3c(Sc4ccc(N)cc4)ccc1c23
inhibition [1]: Active
Ki [2]: > 20 µM

Structure (SMILES): CCN(CC)CCNC1=C(C#N)C(=O)c2cccc3c(SC4CCCCC4)ccc1c23
Activity (BaF3): < 10%
inhibition (K562 [5]): Dose-Dependent Effect
inhibition (K562 [6]): inactive
Ki [7]: 5.15 µM
IC50 [1]: 15.8 µM
inhibition [1]: Dose-Dependent Effect
Ki [2]: 0.25 µM
Activity (K562 [8]): inactive
inhibition (K562 [9]): Active
Activity [10]: Active
Kd [11]: 0.21 µM
Kd [12]: 1.58 µM
Activity [13]: Non-Toxic
Activity (K562 [14]): inactive
Ki [15]: 2.72 µM
T/C [16]: 33.51%
AUC(0-t) at 24 h [17]: 12.2 µg·h/mL
inhibition (K562 [18]): Active
Cmax [19]: 2.3 µg/mL
Activity (Mus musculus [20]): Active
clearance [21]: 0.246 L/h/kg
Activity (K562 [22]): inactive
half-life [23]: 5.2 h
EC50 [3]: 0.34 µM
EC50 (BV-173): 0.62 µM
Tmax [24]: 1 h
Activity (Mus musculus [25]): Active
Activity (HEK293): < 10%
Kd [26]: 3.12 µM
inhibition (K562 [27]): Active
Activity (K562 [28]): inactive
Activity (Mus musculus [29]): Active
EC50 (K562 [4]): 1.3 µM
inhibition (K562 [30]): Active
